# Test results taken from patent US20070037887A1, “Blockade of mtor to prevent a hormonal adaptive response” (University of Virginia Patent Foundation, priority 2003, published 2007).
# Key:
# [1] = tested on: MCF-7 cells; assay: [3H] thymidine incorporation into DNA, MCF-7 cells; type: cell-based, human
# Protocol: (§1) FIGS. 5A & 5B represent the effect of FTS on DNA synthesis in MCF-7 (FIG. 5A) and LTED (FIG. 5B) cells. One hundred thousand cells were plated into each well of 24-well plates. Two days later, the cells were re-fed with IMEM containing 5% DCC-FBS. After another two days, cells were treated in quadruplicate with the compounds indicated for 18 hours. [^3H] thymidine (1 μCi/well) was added during the last 2 h of incubation. [^3H] thymidine incorporated into DNA was normalized by protein content.
# (§2) The inhibitory effect of FTS on cell growth may be the result of inhibition of cellular proliferation, induction of apoptosis, or both. To determine the mechanism by which FTS inhibits cell growth, FTS's effect on DNA synthesis and apoptosis was investigated. […] Estradiol (10^−10 M) increased [^3H] thymidine incorporation by 2.6 fold compared to the control level in MCF-7 cells.
# [2] = tested on: LTED cells; assay: [3H] thymidine incorporation into DNA, LTED cells; type: cell-based, human; details: FTS 75 μM, 18 hours
# Protocol: as §1, §2
# [3] = tested on: ERK1/2, Akt, p70S6K, PHAS-1 phosphorylation in LTED cells; assay: IGF-1 induced activation of MAP kinase, PI3 kinase and mTOR in LTED cells (Western); type: cell-based, human
# Protocol: FIG. 9. represents data showing the effect of FTS on IGF-1 induced activation of MAP kinase, PI3 kinase, and mTOR in LTED cells. Subconfluent LTED cells grown in 60 mm dishes were serum starved for 24 h, pretreated with FTS (100 μM) or LY 294002 (LY, 20 μM) for 10, 30 or 60 min before addition of IGF-1 (20 ng/ml for 10 min). Cells were then harvested and cell lysates prepared. Phosphorylated and total kinases were detected by Western analysis using specific antibodies.
# LTED cells were pretreated with FTS (100 μM) or LY 294002 (20 μM) for 10, 30, and 60 min and then IGF-1 (20 ng/ml) was added for 10 min. […] The inhibitory effect was seen as early as 10 minutes of treatment whereas FTS induced no effect. In marked contrast, both FTS and Ly inhibited the phosphorylation of 4E BP-1, particularly at the 60 minute time point. (FIG. 9).
# [4] = tested on: MCF-7 cells; assay: Apoptosis ELISA (Cell Death Detection Kit), MCF-7 cells; type: cell-based, human; details: three day treatment
# Protocol: FIG. 6 is a bar graph portraying data representing the induction of apoptosis in MCF-7 and LTED cells by FTS. Eighty thousand MCF-7 and LTED cells were plated into each well of 12-well plates in their culture media. Two days later, the cells were treated with FTS for 3 days. Apoptosis was measured using a Cell Death Detection Kit from Roche Molecular Biochemicals. Parallel plates subjected to identical treatment were prepared for cell counting. The results were expressed as the values of optical density at 405 nm per 10,000 cells.
# Applicants postulated that these cells might also have become sensitized to the pro-apoptotic effects of estradiol. To test this hypothesis, an ELISA assay was used to assess apoptosis and to compare the effects of estradiol in wild-type and LTED cells. […] The presence of apoptosis in LTED cells was confirmed by the measurement of annexin V and the use of time-lapse microscopy.
# The effect of a three day treatment with FTS on apoptosis in MCF-7 and LTED cells was examined using the ELISA assay for quantitation. […] LTED cells were much more sensitive than MCF-7 cells to the apoptotic effects of FTS.
# [5] = tested on: T1, mTOR-raptor complex; assay: Coimmunoprecipitation of raptor with mTOR, compound added to cell extracts or immune complexes; type: binding; details: extracts of nontransfected cells
# T1 construct: rows headed: amount of endogenous raptor that coimmunoprecipitated with mTOR; other: extracts of nontransfected cells
# Protocol: 293T cells were transfected with pcDNA3 alone (Vec.) or with a combination of pcDNA3AU1-mTOR, pcDNA33HA-Raptor, and pcDNA33HA-mLST8. Extracts of the cells were incubated with increasing concentrations of FTS before AU1-mTOR was immunoprecipated. Samples of the immune complexes were incubated with [γ-^32P]ATP and recombinant [His^6]PHAS-I, then subjected to SDS-PAGE and transferred to an immobilon membrane. After obtaining a phosphorimage of the membrane to detect ^32P-PHAS-I, the membrane was immunoblotted with PThr^36/45 antibodies. Other samples of the immune complexes were subjected to SDS-PAGE and immunoblots were prepared with antibodies to the HA epitope or to mTOR (see FIG. 13A). Extracts of nontransfected 293T cells were incubated with increasing concentrations of FTS before mTOR was immunoprecipated with mTAb1. A control immunoprecipitation was conducted using nonimmune IgG (NI). Immune complexes were subjected to SDS-PAGE and immunoblots were prepared with antibodies to mLST8, mTOR, and raptor.
# Samples of extracts from 293T cells overexpressing AU1-mTOR, HA-raptor, and HA-mLST8 were incubated for 1 h with increasing concentrations of FTS (●, ▴, ▪) or GTS (∘, Δ, □) before immunoprecipitations were conducted with anti-AU1 antibodies. mTOR kinase activity (●, ∘) was determined by measuring ^32P incorporation into [His^6]PHAS-I in immune complex kinases assays performed with [γ-^32P]ATP (see FIG. 14A). The relative amounts of HA-raptor (▴, Δ) and HA-mLST8 (▪, □) that coimmunoprecipitated with AU1-mTOR were determined after immunoblotting with anti-HA antibodies (see FIG. 14B). The results (mean values+S.E. from 5 experiments) are expressed as percentages of the mTOR activity (FIG. 14A) or coimmunoprecipitating proteins (FIG. 14B) from samples incubated without FTS or GTS, and have been corrected for the amounts of AU1-mTOR immunoprecipitated.
# 293T cells were transfected with pcDNA3 alone (Vec.) or with a combination of pcDNA3AU1-mTOR, pcDNA33HARaptor, and pcDNA33HA-mLST8. AU1-mTOR was immunoprecipitated and samples of the washed immune complexes were at incubated […] for 30 min with no inhibitors or with the following: caffeine (1 mM), FTS (50 μM), LY294002 (10 μM), rapamycin (1 μM) plus FKBP12 (10 μM), and 1 μM wortmannin. To prevent destruction of wortmannin, incubations were conducted in the absence of thiol reducing agents. Samples of the immune complexes were incubated for 10 min with 10 mM MnCl2, 1 mM [γ-^32P]ATP, and 50 μg/ml [His^6]PHAS-I to assess mTOR activity. Other samples were rinsed twice, subjected to SDS-PAGE, and immunoblotted with anti-HA and anti-AU1 antibodies to determine the amounts of HA-raptor and HA-mLST8 associated with AU1-mTOR. The relative amounts of ^32P incorporated into PHAS-I were determined by phosphorimaging (see FIG. 15B).
smiles,measurement,setting,value
"CC(C)=CCC/C(C)=C/CC/C(C)=C/CSc1ccccc1C(=O)O [FTS, farnesylthiosalicylic acid]",[3H] thymidine incorporated into DNA,"[1]; FTS 75 μM, 18 hours",significantly reduced
same,estradiol-induced increase of [3H] thymidine incorporation,[1]; FTS with estradiol 10^−10 M,completely blocked
same,[3H] thymidine incorporated into DNA,[2],significantly reduced
same,IGF-1 induced ERK1/2 phosphorylation,"[3]; FTS 100 μM or LY 294002 20 μM for 10, 30, 60 min, IGF-1 20 ng/ml 10 min",Neither FTS nor LY 294002 inhibited
same,phosphorylation of 4E BP-1,"[3]; FTS 100 μM or LY 294002 20 μM, particularly at 60 minute time point",inhibited
same,IGF-1 induced phosphorylation of Akt at Ser473 and p70S6K at Thr389,"[3]; FTS 100 μM or LY 294002 20 μM, IGF-1 20 ng/ml 10 min",no effect
same,induction of apoptosis,[4]; FTS 75 μM,dramatic increase in apoptosis
same,induction of apoptosis,[4]; FTS 20 and 50 μM,did not induce apoptosis
same,amount of endogenous raptor that coimmunoprecipitated with mTOR,[5],decreased
